Data as given in US11292788B2, “IL-17 and IFN-gamma inhibition for the treatment of autoimmune diseases and chronic inflammation” (Immunic AG, priority 2017, dated 2022).
Where two headings read alike, the source gives them in different places.

What was measured:
Format in all cases: cell-based
IL-17A = test: Cytokine assay: IL-17A production by human PBMC stimulated with PHA; settings: IC50 class, read-out: IL-17A Inhib.
Method: (§1) Cytokine Assay: Analysis of Proliferation of and Cytokine Production by Human PBMC Stimulated with PHA
(§2) Peripheral blood mononuclear cells (PBMC) from healthy human donors were purified using Accuspin™ System-Histopaque-1077 (Sigma) according to the protocol recommended by the manufacturer. Purified PBMC were then washed twice with phosphate-buffered saline (PBS) and resuspended in RPMI1640 culture medium supplemented with 10% dialyzed heat inactivated fetal calf serum, 1.5 mM L-glutamine, 100 U penicillin/ml, and […] (all from PAN Biotech, Aidenbach, Germany). For stimulation, PBMC were seeded at 1×10^5 cells/well, activated with 2 μg/ml phytohaemagglutinin (PHA, Sigma) and incubated with the test compounds for 48 hours. IL-17A, IL-17F and INF-γ were then determined in the culture supernatant using a Luminex BioPlex system, following the manufacturer's instructions (BioRad, Munich, Germany). For screening, compounds were used at 10, 1, 0.1 and 0.01 μM. To determine the IC50, compounds were titrated semilogarithmically.
(§3) Cytokines were determined in the aforementioned culture supernatant using the following methods: IL-17A was measured using the human homodimer IL-17A ELISA Ready Set Go Kit from eBioscience (Frankfurt, Germany); IL-17F using the human IL-17F ELI-Pair from Hölzel DiagnosticaGmBH (Köln, Germany); and IFN-γ using the OptEIA human IFN-g ELISA from BD Bioscience (Heidelberg, Germany), all following the manufacturer's instructions.

IL-17F = test: Cytokine assay: IL-17F production by human PBMC stimulated with PHA; settings: IC50 class, read-out: IL-17F Inhib.
Method: as §1, §2, §3

INF-γ = test: Cytokine assay: INF-γ production by human PBMC stimulated with PHA; settings: IC50 class, read-out: IFN-gamma Inhib.
Method: as §1, §2, §3

| Compound | IC50 (IL-17A; Homo sapiens, PBMC) [nM] | IC50 (IL-17F; Homo sapiens, PBMC) [nM] | IC50 (INF-γ; Homo sapiens, PBMC) [nM] | IC50 (IL-17A) [nM] | IC50 (IL-17F) [nM] | IC50 (INF-γ) [nM] |
| --- | --- | --- | --- | --- | --- | --- |
| C[C@@H](O)Cn1ncc(-c2onc(-c3cccc(C(=O)NC4CCC4)c3Cl)c2-c2ccncn2)c1C(F)(F)F [Example 155, (R)-2-chloro-N-cyclobutyl-3-(5-(1-(2-hydroxypropyl)-5-(trifluoromethyl)-1H-pyrazol-4-yl)-4-(pyrimidin-4-yl)isoxazol-3-yl)benzamide] | 50 to 500 | 50 to 500 | 50 to 500 | – | – | – |
| CC(=O)c1c(-c2c(F)cccc2Cl)noc1-c1cnn(CC(C)(C)O)c1C(F)(F)F [Example 34, 1-(3-(2-chloro-6-fluorophenyl)-5-(1-(2-hydroxy-2-methylpropyl)-5-(trifluoromethyl)-1H-pyrazol-4-yl)-1,2-oxazol-4-yl)ethanone] | 500 to 5000 | 500 to 5000 | 500 to 5000 | – | – | – |
| COC(=O)c1c(-c2ccccc2Cl)noc1-c1cnn(C[C@H](C)O)c1C(F)(F)F [Example 22, methyl (S)-3-(2-chlorophenyl)-5-(1-(2-hydroxypropyl)-5-(trifluoromethyl)-1H-pyrazol-4-yl)isoxazole-4-carboxylate] | 50 to 500 | 50 to 500 | < 50 | – | – | – |
| C[C@@H](O)Cn1ncc(-c2onc(-c3c(F)cccc3Cl)c2C(=O)NC2CCC2)c1C(F)(F)F [Example 46, 3-(2-chloro-6-fluorophenyl)-N-cyclobutyl-5-(1-((2R)-2-hydroxypropyl)-5-(trifluoromethyl)-1H-pyrazol-4-yl)isoxazole-4-carboxamide] | 500 to 5000 | 50 to 500 | 50 to 500 | – | – | – |
| Cc1c(-c2onc(-c3ccccc3Cl)c2-c2cnccn2)cnn1[C@H]1C[C@@](C)(O)C1 [Example 109, 3-{4-[3-(2-chlorophenyl)-4-(pyrazin-2-yl)-1,2-oxazol-5-yl]-5-methyl-1H-pyrazol-1-yl}-1-methylcyclobutan-1-ol] | 500 to 5000 | 500 to 5000 | 50 to 500 | – | – | – |
| Cc1c(-c2onc(-c3ccccc3Cl)c2-c2ccncn2)cnn1[C@H]1C[C@@](C)(O)C1 [Example 107, 3-{4-[3-(2-chlorophenyl)-4-(pyrimidin-4-yl)-1,2-oxazol-5-yl]-5-methyl-1H-pyrazol-1-yl}-1-methylcyclobutan-1-ol] | 50 to 500 | 50 to 500 | < 50 | – | – | – |
| Cc1c(-c2onc(-c3c(F)cccc3Cl)c2-c2ccncn2)cnn1[C@H]1C[C@@](C)(O)C1 [Example 108, 3-{4-[3-(2-chloro-6-fluorophenyl)-4-(pyrimidin-4-yl)-1,2-oxazol-5-yl]-5-methyl-1H-pyrazol-1-yl}-1-methylcyclobutan-1-ol] | 50 to 500 | 50 to 500 | 50 to 500 | – | – | – |
| CC(C)(O)CCn1ncc(-c2onc(-c3cccc(O)c3Cl)c2-c2ncccn2)c1C(F)(F)F [Example 129, 2-chloro-3-{5-[1-(3-hydroxy-3-methylbutyl)-5-(trifluoromethyl)-1H-pyrazol-4-yl]-4-(pyrimidin-2-yl)-1,2-oxazol-3-yl}phenol] | 50 to 500 | 50 to 500 | 500 to 5000 | – | – | – |
| CN1CCN(CCOc2cccc(-c3noc(-c4cnn(CCC(C)(C)O)c4C(F)(F)F)c3-c3ncccn3)c2Cl)CC1 [Example 136, 4-[4-(3-{2-chloro-3-[2-(4-methylpiperazin-1-yl)ethoxy]phenyl}-4-(pyrimidin-2-yl)-1,2-oxazol-5-yl)-5-(trifluoromethyl)-1H-pyrazol-1-yl]-2-methylbutan-2-ol] | 50 to 500 | 50 to 500 | 50 to 500 | – | – | – |
| C[C@@H](O)Cn1ncc(-c2onc(-c3cccc(C(=O)NC4CC4)c3Cl)c2-c2ccncn2)c1C(F)(F)F [Example 159, (R)-2-chloro-N-cyclopropyl-3-(5-(1-(2-hydroxypropyl)-5-(trifluoromethyl)-1H-pyrazol-4-yl)-4-(pyrimidin-4-yl)isoxazol-3-yl)benzamide] | 500 to 5000 | 500 to 5000 | 50 to 500 | – | – | – |
| C[C@@H](O)Cn1ncc(-c2onc(-c3cccc(C(=O)N4CCOCC4)c3Cl)c2-c2ccncn2)c1C(F)(F)F [Example 154, (R)-(2-chloro-3-(5-(1-(2-hydroxypropyl)-5-(trifluoromethyl)-1H-pyrazol-4-yl)-4-(pyrimidin-4-yl)isoxazol-3-yl)phenyl) (morpholino)methanone] | 500 to 5000 | ≥ 5000 | 50 to 500 | – | – | – |
| CC(C)NC(=O)c1cccc(-c2noc(-c3cnn(C[C@@H](C)O)c3C(F)(F)F)c2-c2ccncn2)c1 [Example 167, (R)-3-(5-(1-(2-hydroxypropyl)-5-(trifluoromethyl)-1H-pyrazol-4-yl)-4-(pyrimidin-4-yl)isoxazol-3-yl)-N-isopropylbenzamide] | ≥ 5000 | ≥ 5000 | 500 to 5000 | – | – | – |
| C[C@H](O)Cn1ncc(-c2onc(-c3ccccc3Cl)c2COC2COC2)c1C(F)(F)F [Example 88, (S)-1-(4-(3-(2-chlorophenyl)-4-((oxetan-3-yloxy)methyl)isoxazol-5-yl)-5-(trifluoromethyl)-1H-pyrazol-1-yl)propan-2-ol] | ≥ 5000 | 500 to 5000 | 500 to 5000 | – | – | – |
| CC(C)NC(=O)c1cccc(-c2noc(-c3cnn(C[C@@H](C)O)c3C(F)(F)F)c2-c2ccncn2)c1Cl [Example 157, (R)-2-chloro-3-(5-(1-(2-hydroxypropyl)-5-(trifluoromethyl)-1H-pyrazol-4-yl)-4-(pyrimidin-4-yl)isoxazol-3-yl)-N-isopropylbenzamide] | 500 to 5000 | 500 to 5000 | 50 to 500 | – | – | – |
| Cc1c(-c2onc(-c3ccccc3Cl)c2C(=O)OC2COC2)cnn1[C@H]1C[C@@](C)(O)C1 [Example 52, oxetan-3-yl 3-(2-chlorophenyl)-5-(1-(3-hydroxy-3-methylcyclobutyl)-5-methyl-1H-pyrazol-4-yl)isoxazole-4-carboxylate] | 50 to 500 | 50 to 500 | 50 to 500 | – | – | – |
| COc1c(C(=O)N2CCC2)cccc1-c1noc(-c2cnn(C[C@@H](C)O)c2C(F)(F)F)c1-c1ccncn1 [Example 163, (R)-(azetidin-1-yl)(3-(5-(1-(2-hydroxypropyl)-5-(trifluoromethyl)-1H-pyrazol-4-yl)-4-(pyrimidin-4-yl)isoxazol-3-yl)-2-methoxyphenyl)methanone] | ≥ 5000 | ≥ 5000 | 500 to 5000 | – | – | – |
| CC(C)(O)Cn1ncc(-c2onc(-c3c(F)cccc3Cl)c2C(=O)CC2CCC2)c1C(F)(F)F [Example 36, 1-[3-(2-chloro-6-fluorophenyl)-5-[1-(2-hydroxy-2-methylpropyl)-5-(trifluoromethyl)-1H-pyrazol-4-yl]-1,2-oxazol-4-yl]-2-cyclobutylethan-1-one] | 500 to 5000 | 50 to 500 | 50 to 500 | – | – | – |
| Cc1nnc(-c2c(-c3c(F)cccc3Cl)noc2-c2cnn(CC(C)(C)O)c2C(F)(F)F)o1 [Example 30, 1-(4-(3-(2-chloro-6-fluorophenyl)-4-(5-methyl-1,3,4-oxadiazol-2-yl)isoxazol-5-yl)-5-(trifluoromethyl)-1H-pyrazol-1-yl)-2-methylpropan-2-ol] | 50 to 500 | 500 to 5000 | 500 to 5000 | – | – | – |
| COc1ccccc1-c1noc(-c2cnn(C[C@@H](C)O)c2C(F)(F)F)c1-c1ccncn1 [Example 115, (2R)-1-{4-[3-(2-methoxyphenyl)-4-(pyrimidin-4-yl)-1,2-oxazol-5-yl]-5-(trifluoromethyl)-1H-pyrazol-1-yl}propan-2-ol] | 500 to 5000 | 500 to 5000 | 50 to 500 | – | – | – |
| COc1ccccc1-c1noc(-c2cnn(CC(C)(C)O)c2C(F)(F)F)c1-c1ncccn1 [Example 114, 1-{4-[3-(2-methoxyphenyl)-4-(pyrimidin-2-yl)-1,2-oxazol-5-yl]-5-(trifluoromethyl)-1H-pyrazol-1-yl}-2-methylpropan-2-ol] | ≥ 5000 | ≥ 5000 | 500 to 5000 | – | – | – |
| C[C@]1(O)C[C@H](n2ncc(-c3onc(-c4ccccc4Cl)c3C(=O)OC3CC3)c2C(F)(F)F)C1 [Example 48, cyclopropyl 3-(2-chlorophenyl)-5-(1-(3-hydroxy-3-methylcyclobutyl)-5-(trifluoromethyl)-1H-pyrazol-4-yl)isoxazole-4-carboxylate] | – | – | – | 500 to 5000 | 500 to 5000 | 500 to 5000 |
| CC(C)(O)Cn1ncc(-c2onc(-c3c(F)cccc3Cl)c2C(=O)NC2CC2)c1C(F)(F)F [Example 42, 3-(2-chloro-6-fluorophenyl)-N-cyclopropyl-5-(1-(2-hydroxy-2-methylpropyl)-5-(trifluoromethyl)-1H-pyrazol-4-yl)isoxazole-4-carboxamide] | ≥ 5000 | ≥ 5000 | ≥ 5000 | – | – | – |
| COCc1c(-c2ccccc2Cl)noc1-c1cnn([C@H]2C[C@](C)(O)C2)c1C [Example 73, 3-{4-[3-(2-chlorophenyl)-4-(methoxymethyl)-1,2-oxazol-5-yl]-5-methyl-1H-pyrazol-1-yl}-1-methylcyclobutan-1-ol] | 500 to 5000 | 500 to 5000 | 500 to 5000 | – | – | – |
